Test results: paper PMC6198280, “Chemical Instability and Promiscuity of Arylmethylidenepyrazolinone-Based MDMX Inhibitors” (ACS Chemical Biology, 2018)

Target: T1, MDMX (Homo sapiens, UniProt O15151)
T1 construct: gene MDM4
T1 sequence (O15151 1-120): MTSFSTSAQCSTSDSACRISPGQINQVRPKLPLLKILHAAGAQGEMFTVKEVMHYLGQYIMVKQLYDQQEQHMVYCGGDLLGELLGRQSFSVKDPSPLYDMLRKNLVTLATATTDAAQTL
Test: ITC; MALDI-TOF MS of covalent adducts, no reducing agent
Type: binding

Kd: > 13 µM
SMILES: CCOc1cc(/C=C2\C(=O)N(c3ccccc3)N=C2C)cc(Cl)c1OCC(=O)OC [compound 1, SJ-172550]
